System: Phospho-NF-κB p65 (Ser536)
Assay: LPS induced neuroinflammation: Phospho-NF-κB p65 ELISA of brain homogenates
Assay type: in vivo, mouse
Conditions: 25 mg/kg i.v. alternate days, day 7
Procedure: Animals and lipopolysaccharide induced neuroinflammation: Male C57/6J mice weighing 32 to 37 grams were housed five per cage at a temperature of 22±2° C. with 12 hour light/12 hour dark cycles with free access to laboratory food and water. Lipopolysaccharides (LPS) from Escherichia coli 026:B6, =10,000 EU/mg, purified by phenol extraction was purchased from Sigma (Sigma Aldrich, Mo., USA). The mice were randomly divided into seven groups: LPS, LPS+GA-1 or GA-2 or CP-1 or CP-2 or CP-3 or TAT. The LPS was administered intraperitoneally at […] in 100 μl of sterile saline followed by corn oil in the morning daily for six days. The GA or CP was administered intravenously at 25 mg/kg in 100 μl of sterile saline on alternate days. Additional control group included mice receiving saline alone. […]
NF-κB assay: Brain homogenates processed as above were assessed by the Cell Signaling Technology PathScan® Phospho-NF-κB p65 (Ser^536) Sandwich ELISA kit following manufacturer's protocol (Cell Signaling Technology, Boston, Mass.). […] After extensive washing, the captured phospho-NF-κB p65 protein was detected by incubating with horse radish peroxidase (HRP) conjugated NF-κB p65 rabbit mAb followed by washing and color development using the TMB substrate. Absorbance at 450 nm was measured using a microplate reader (Model 680; Bio-Rad Laboratories, Hercules, Calif., USA). […]

Substance | absorbance suggestive of activated p65 in brain protein extract
Ac-EPAPESPQV-NH2 [GA-2] | 0.12+/−0.07
Ac-EPAPLAPYG-NH2 [GA-1] | 0.098+/−0.03

— US11478526B2, “Methods of reducing neuroinflammation or toxicity induced by amyloid beta (abeta) using glucocorticoid induced leucine zipper (GILZ) analog peptides” (INDIANA UNIVERSITY RESEARCH AND TECHNOLOGY CORPORATION, priority 2016, dated 2022)
